Test results from patent US20110046141A1, “USE OF PDE5 INHIBITORS FOR TREATING CIRCADIAN RHYTHM DISORDERS” (CONSEJO NACIONAL DE INVESTIGACIONES CIENTIFICAS Y TECNICAS …, priority 2007, published 2011).

Legend:
rats = conditions: i.p.; cited from earlier work
[1] = test system: Syrian hamsters (Mesocricetus auratus); experiment: Reentrainment of wheel-running activity rhythm after an abrupt 6-h advance of the LD cycle; assay type: in vivo; conditions: for time to resynchronize to the new LD cycle: saline 12±2 days; for decrease in reentrainment time: FIG. 1D
Description: Animals. Male adult (3-4 month-old) Syrian hamsters (Mesocricetus auratus) were raised and maintained in a 14:10 h light-dark cycle (L:D, lights on at 0600 h), with food and water ad libitum and room temperature set at 20±2° C. All animal procedures were performed in strict accordance with NIH rules for animal care and maintenance. Activity rhythm recording. For the resynchronization experiment, animals were transferred to individual cages equipped with a running wheel (17 cm. diameter) and with light intensity averaging 200 lux at cage level. Running-wheel activity was continuously recorded for each animal using a digital system that registers wheel revolutions and stored at 5-min intervals for further analysis. Animals were initially maintained under a 14:10-h is light-dark cycle (LD, lights on at 1900 h) for at least 10 days. Then, hamsters were subjected to an abrupt 6-h advance in the phase of the LD cycle. On the day of the phase shift, intraperitoneal (i.p) injection of sildenafil or vehicle was given at zeitgeber time (ZT) 18, defining ZT 12 as the time of lights off. Time for reentrainment to the new LD cycle was defined as the time it took for each animal to adjust its activity onset with the new cycle (onset at the new time of lights off±15 minutes). Daily onsets of activity were determined. Briefly, activity onset was defined as the 10 min-bin that contained at least 80 wheel revolutions, followed by another bin of at least another 80 wheel revolutions within 40 min. The effect of 1, 3.5 or 10 mg/kg sildenafil—extracted from commercial preparations according to Francis et al. (Int. J. Impotence Res. 2003 15: 369-372) was tested at ZT 14 or 18 in comparison to vehicle administration (sterile saline).

[2] = test system: Syrian hamsters (Mesocricetus auratus); experiment: Reentrainment of wheel-running activity rhythm after a 6-hr phase delay of the LD cycle; assay type: in vivo; conditions: 3.5 mg/kg i.p. at ZT 14; 6-hr delay; FIG. 3A
Description: (A) Effect on reentrainment of wheel-running activity rhythm following a 6-hr phase delay of the LD cycle. Double-plotted actograms of hamster wheel-running activity showing reentrainment to a 6-hr delay of the LD cycle after the injection of vehicle (top) and sildenafil (3.5 mg/kg, i.p., middle). Injections of either saline or sildenafil were given at ZT 14 on the day of the cycle change (white star). Bottom: mean±S.E.M. (n=4 animals per group) of days needed for reentrainment. (B) Effect of sildenafil on light-induced phase delays following light pulses at CT 14. Representative actograms showing vehicle (top) or sildenafil (middle) injections. Bottom graph: Mean±S.E.M. (n=4 animals per group). Animals. Male adult (3-4 month-old) Syrian hamsters (Mesocricetus auratus) were raised and maintained in a 14:10 h light-dark cycle (L:D, lights on at 0600 h), with food and water ad libitum and room temperature set at 20±2° C. All animal procedures were performed in strict accordance with NIH rules for animal care and maintenance. Activity rhythm recording. […] Running-wheel activity was continuously recorded for each animal using a digital system that registers wheel revolutions and stored at 5-min intervals for further analysis. […] Daily onsets of activity were determined. […]

[3] = test system: cGMP levels in the hamster SCN; experiment: Determination of cGMP levels in the SCN by direct enzyme immunoassay; assay type: in vivo; conditions: n=4
Description: Determination of cGMP levels. Cyclic GMP content was determined using a direct enzyme immunoassay kit (Correlate-EIA #900-014, Assay Designs, Ann Arbor, Mich.). Hamsters received an injection of sildenafil (3.5 mg/kg, i.p.) or vehicle (sterile saline solution) at CT 18 and were sacrificed by decapitation 45-90 min later. The SCN were quickly punched out and immediately frozen in liquid nitrogen in order to avoid endogenous cGMP degradation. Tissue was grounded to a fine powder under liquid nitrogen and then homogenized in 0.1 M HCI. The overnight acetylated format of the kit was used. […] In order to precisely compare the effect of sildenafil on cGMP levels, the use of other phosphodiesterase inhibitors, e.g., IBMX, was avoided.

[4] = test system: Syrian hamsters (Mesocricetus auratus); experiment: Light-induced phase delays of activity rhythm, light pulse at CT 14; assay type: in vivo; conditions: FIG. 3B
Description: (A) Effect on reentrainment of wheel-running activity rhythm following a 6-hr phase delay of the LD cycle. Double-plotted actograms of hamster wheel-running activity showing reentrainment to a 6-hr delay of the LD cycle after the injection of vehicle (top) and sildenafil (3.5 mg/kg, i.p., middle). Injections of either saline or sildenafil were given at ZT 14 on the day of the cycle change (white star). Bottom: mean±S.E.M. (n=4 animals per group) of days needed for reentrainment. (B) Effect of sildenafil on light-induced phase delays following light pulses at CT 14. Representative actograms showing vehicle (top) or sildenafil (middle) injections. Bottom graph: Mean±S.E.M. (n=4 animals per group). Animals. Male adult (3-4 month-old) Syrian hamsters (Mesocricetus auratus) were raised and maintained in a 14:10 h light-dark cycle (L:D, lights on at 0600 h), with food and water ad libitum and room temperature set at 20±2° C. All animal procedures were performed in strict accordance with NIH rules for animal care and maintenance. […] Phase shifts were calculated by fitting a line (by three observers masked to the experimental procedure) through activity onsets 5 days prior and between 5 and 15 days after light exposure and then comparing these two lines on the day of the light pulse. […]

[5] = test system: Syrian hamsters (Mesocricetus auratus); experiment: Light-induced phase advances of activity rhythm, 15-min 50 lux light pulse at CT 18 in constant dark; assay type: in vivo; conditions: for light-induced phase advance: vehicle 76±23 min
Description: Animals. Male adult (3-4 month-old) Syrian hamsters (Mesocricetus auratus) were raised and maintained in a 14:10 h light-dark cycle (L:D, lights on at 0600 h), with food and water ad libitum and room temperature set at 20±2° C. All animal procedures were performed in strict accordance with NIH rules for animal care and maintenance.
For light pulse experiments, hamsters were placed in constant dark (DD) conditions, and exposed to a 15-min white light pulse of 50 lux at either circadian time (CT) 14 or 18 (with CT 12 defined as the onset of wheel running activity in DD). Phase shifts were calculated by fitting a line (by three observers masked to the experimental procedure) through activity onsets 5 days prior and between 5 and 15 days after light exposure and then comparing these two lines on the day of the light pulse. […]

[6] = test system: Syrian hamsters (Mesocricetus auratus); experiment: Observation of sildenafil-induced penile erections in treated hamsters; assay type: in vivo; conditions: intermediate dose 3.5 mg/kg i.p.

In the case of `CCCc1nn(C)c2c(=O)[nH]c(-c3cc(S(=O)(=O)N4CCN(C)CC4)ccc3OCC)nc12` [sildenafil, 5-[2-ethoxy-5-(4-methyl-1-piperazinylsulphonyl)phenyl]-1-methyl-3-n-propyl-1,6-dihydro-7H-pyrazolo[4,3-d]pyrimidin-7-one], the optimal erectogenic dose (rats) is listed as 5 mg/kg/day, the “time to resynchronize to the new LD cycle” value (“time to resynchronize” for short) ([1]; 1 mg/kg i.p. at ZT 18, p>0.05 vs. control) is listed as 9 ± 3 days and the “decrease in reentrainment time” value ([1]; 1 mg/kg) is listed as 25%. The “time to resynchronize” value ([1]; 3.5 mg/kg i.p. at ZT 18 on day of 6-h advance, mean±SD, six animals per group, p<0.05) was 8 ± 1 days, the “decrease in reentrainment time” value ([1]; 3.5 mg/kg) was 33% and the “time to resynchronize” value ([1]; 10 mg/kg i.p. at ZT 18, p<0.001 vs. control) was 6 ± 2 days. The “decrease in reentrainment time” value ([1]; 10 mg/kg) was 50%, the “effect on reentrainment rates after a delay in the LD cycle” value [2] was “did not affect” and the “SCN cGMP levels” value ([3]; 3.5 mg/kg i.p. at CT 18, 45 minutes after injection, saline 0.37±0.20, control 0.29±0.15, mean±SD) was 0.63±0.08 pmol cGMP/mg protein. For the same compound, the “SCN cGMP levels” value ([3]; 90 min after injection, saline 0.26±0.16, no increase vs controls) was 0.37±0.20 pmol cGMP/mg protein, the “effect on light-induced phase delays” value [4] was “did not affect” and the light-induced phase advance ([5]; 3.5 mg/kg i.p. 45 min prior to light pulse at CT 18, mean±SD, p<0.05) was 150.4 ± 64.8 min. The post-treatment circadian period ([5]; after light-induced phase advance) was “did not change”, the light-induced phase advance ([5]; injection 90 min before light pulse at CT 18, not significantly different from controls) was 123 ± 27 min and the “effect on activity rhythms, drug alone” value ([5]; without light pulse) was “did not modify activity rhythms”. The sildenafil-induced penile erections [6] was “did not manifest the effects of sildenafil-induced penile erections”.
